Measured values published in paper PMC2358886, “Evolution of pharmacologic specificity in the pregnane X receptor” (BMC Evolutionary Biology, 2008).
“Also recorded” adds a separate entry of the source. Read-outs that look alike come from different tables or passages of the source.

What was measured:
Ciona VDR/PXR = test: Activation of Ciona VDR/PXR (LBD/GAL4 chimeric receptor) luciferase reporter assay; assay type: cell-based, Ciona intestinalis; settings: screening; reference maximal activator 20 μM 6-formylindolo-[3,2-b]carbazole
Description: The LBD of Ciona VDR/PXR was cloned from cDNA fragments generously provided by Professors Yuji Kohara and Norituki Satoh, and then inserted into the PM2-GAL4 plasmid to create an LBD/GAL4 chimeric receptor.
The LBD of Xenopus tropicalis (Western clawed frog) PXR (xtPXR) was cloned by PCR from RNA extracted from ovary of an adult female frog. Ciona VDR/PXR was cloned from cDNA fragments ciem829d05 and cilv048e18 provided by Professor Yuji Kohara (Center for Genetic Resource Information, National Institute of Genetics, Research Organization of Information and Systems, Mishima, Japan) and Professor Noriyuki Satoh (Kyoto University, Kyoto, Japan), with analysis of the cDNA clones supported by Grant-in-aid for Scientific Research on Priority Area "Genome" of Ministry of Education, Culture, Sports, Science and Technology, Japan.
The creation of a HepG2 (human liver) cell line stably expressing the human Na^+-taurocholate cotransporter (NTCP) has been previously reported. HepG2-NTCP cells were grown in modified Eagle's medium-α containing 10% fetal bovine serum and 1% penicillin/streptomycin (Invitrogen, Carlsbad, CA, USA). Plasmids containing cDNAs for 8 PXRs from 7 species (human, mouse, rat, rabbit, chicken [also called chicken X receptor, CXR], African clawed frog [also termed Xenopus laevis benzoate X receptors α and β, BXRα and BXRβ ], zebrafish), as well as the reporter constructs tk-UAS-Luc and CYP3A4-PXRE-Luc, and 'empty' vectors pCDNA, PsG5, and PM2 were generously provided by SA Kliewer, JT Moore, and LB Moore (GlaxoSmithKline, Research Triangle Park, NC, USA). […] For the full-length expression vectors, the reporter plasmid was CYP3A4-PXRE-Luc, a construct that contains a promoter element from CYP3A4 (recognized by PXR DBDs) driving luciferase expression. For the GAL4/LBD expression constructs, the reporter plasmid was tk-UAS-Luc, which contains GAL4 DNA binding elements driving luciferase expression. The following transfection ratios of reporter, receptor, and β-galactosidase plasmids were used (ng/well): human, mouse, rabbit, and rat PXRs – 25/2.7/20; chicken PXR – 10/1/20; Xenopus tropicalis PXR, zebrafish PXR, and Ciona VDR/PXR – 75/50/20.
The PXR activation assay was a luciferase-based reporter assay. On day 1, 30,000 cells/well were seeded onto 96-well white opaque plates (Corning-Costar, Corning, NY, USA). On day 2, cells were transfected using the calcium phosphate precipitation method with expression vector or 'empty' control vector and luciferase reporter plasmid. On day 3, the cells were washed and then incubated with medium containing charcoal-dextran treated fetal bovine serum (Hyclone, Logan, UT, USA) and drugs or vehicle. On day 4, the cells were washed and the medium replaced with serum-free medium. […]

rat PXR [1] = molecular target: T1, rat PXR (Rattus norvegicus, UniProt Q9R1A7); settings: for Rat PXR efficacy, ε: relative to 20 μM pregnenolone 16α-carbonitrile, assigned an efficacy of 1.0
T1 sequence (Q9R1A7 1-431): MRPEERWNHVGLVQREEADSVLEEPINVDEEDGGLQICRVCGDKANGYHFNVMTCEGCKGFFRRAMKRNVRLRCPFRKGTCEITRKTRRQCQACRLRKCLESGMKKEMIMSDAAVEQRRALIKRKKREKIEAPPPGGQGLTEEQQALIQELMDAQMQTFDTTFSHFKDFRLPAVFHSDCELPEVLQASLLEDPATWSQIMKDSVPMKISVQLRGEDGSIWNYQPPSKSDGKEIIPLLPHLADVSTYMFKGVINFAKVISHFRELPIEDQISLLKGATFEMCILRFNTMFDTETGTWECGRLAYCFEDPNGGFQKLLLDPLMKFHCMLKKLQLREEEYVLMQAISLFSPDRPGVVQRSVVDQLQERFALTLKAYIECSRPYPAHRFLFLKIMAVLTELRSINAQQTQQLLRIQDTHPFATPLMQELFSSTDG

rabbit PXR [2] = molecular target: T2, rabbit PXR (Oryctolagus cuniculus, UniProt Q9TU02)
T2 sequence (Q9TU02 1-411): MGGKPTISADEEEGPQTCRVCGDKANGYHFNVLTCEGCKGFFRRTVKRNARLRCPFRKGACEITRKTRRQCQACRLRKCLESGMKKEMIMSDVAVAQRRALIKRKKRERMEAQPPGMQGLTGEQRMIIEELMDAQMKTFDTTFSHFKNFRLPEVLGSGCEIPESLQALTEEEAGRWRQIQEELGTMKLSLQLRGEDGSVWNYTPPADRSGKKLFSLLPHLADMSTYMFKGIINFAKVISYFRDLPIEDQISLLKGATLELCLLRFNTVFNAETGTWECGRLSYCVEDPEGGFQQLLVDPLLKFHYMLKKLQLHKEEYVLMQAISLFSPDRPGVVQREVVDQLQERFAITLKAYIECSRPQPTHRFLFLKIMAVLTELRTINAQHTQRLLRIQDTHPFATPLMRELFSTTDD

chicken PXR [3] = molecular target: T3, chicken PXR (Gallus gallus, UniProt Q9DFH3); settings: for Chicken PXR Activity: -log(EC50), EC50 in molar units
T3 sequence (Q9DFH3 1-391): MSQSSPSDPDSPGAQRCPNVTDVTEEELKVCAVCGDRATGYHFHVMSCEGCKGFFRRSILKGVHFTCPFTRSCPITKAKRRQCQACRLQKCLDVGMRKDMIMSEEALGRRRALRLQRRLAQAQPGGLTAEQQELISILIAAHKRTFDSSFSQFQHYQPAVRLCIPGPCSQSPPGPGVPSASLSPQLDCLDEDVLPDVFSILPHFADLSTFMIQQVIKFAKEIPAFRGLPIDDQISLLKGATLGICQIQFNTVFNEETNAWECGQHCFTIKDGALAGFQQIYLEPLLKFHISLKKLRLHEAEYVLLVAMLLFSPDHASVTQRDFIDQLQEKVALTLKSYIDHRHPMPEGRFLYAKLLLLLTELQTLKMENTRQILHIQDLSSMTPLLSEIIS

mouse PXR [4] = molecular target: T4, mouse PXR (Mus musculus, UniProt O54915); settings: for Mouse PXR efficacy, ε: relative to 20 μM pregnenolone 16α-carbonitrile, assigned an efficacy of 1.0
T4 sequence (O54915 1-431): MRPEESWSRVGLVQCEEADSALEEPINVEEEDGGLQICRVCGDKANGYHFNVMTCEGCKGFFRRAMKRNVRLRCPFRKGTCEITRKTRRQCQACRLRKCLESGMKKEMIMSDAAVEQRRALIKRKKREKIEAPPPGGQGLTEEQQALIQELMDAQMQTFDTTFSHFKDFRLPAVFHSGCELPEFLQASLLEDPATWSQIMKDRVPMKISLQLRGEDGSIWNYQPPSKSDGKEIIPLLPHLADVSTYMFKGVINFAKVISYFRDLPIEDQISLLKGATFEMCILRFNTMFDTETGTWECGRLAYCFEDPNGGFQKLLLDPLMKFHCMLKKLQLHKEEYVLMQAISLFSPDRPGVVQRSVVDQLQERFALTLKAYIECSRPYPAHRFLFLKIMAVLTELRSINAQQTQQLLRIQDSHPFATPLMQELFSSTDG

rat PXR [5] = molecular target: T1, rat PXR; test: cell-based
mouse PXR [6] = molecular target: T4, mouse PXR; test: cell-based
HepG2 cells [7] = test system: HepG2 cells
zebrafish PXR [8] = molecular target: T5, zebrafish PXR (Danio rerio, UniProt A5WYG8); test: cell-based
T5 sequence (A5WYG8 144-430): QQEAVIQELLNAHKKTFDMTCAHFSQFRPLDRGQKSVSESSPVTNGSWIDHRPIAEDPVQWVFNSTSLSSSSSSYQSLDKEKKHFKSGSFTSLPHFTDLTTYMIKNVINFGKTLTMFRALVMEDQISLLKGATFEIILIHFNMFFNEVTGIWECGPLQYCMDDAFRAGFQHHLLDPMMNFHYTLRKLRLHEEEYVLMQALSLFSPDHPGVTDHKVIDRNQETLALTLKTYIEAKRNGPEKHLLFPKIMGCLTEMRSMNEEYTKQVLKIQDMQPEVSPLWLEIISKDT

human PXR [9] = molecular target: T6, human PXR (Homo sapiens, UniProt O75469); test: PXR activation luciferase reporter assay, human PXR in HepG2-NTCP cells
T6 sequence (O75469 1-434): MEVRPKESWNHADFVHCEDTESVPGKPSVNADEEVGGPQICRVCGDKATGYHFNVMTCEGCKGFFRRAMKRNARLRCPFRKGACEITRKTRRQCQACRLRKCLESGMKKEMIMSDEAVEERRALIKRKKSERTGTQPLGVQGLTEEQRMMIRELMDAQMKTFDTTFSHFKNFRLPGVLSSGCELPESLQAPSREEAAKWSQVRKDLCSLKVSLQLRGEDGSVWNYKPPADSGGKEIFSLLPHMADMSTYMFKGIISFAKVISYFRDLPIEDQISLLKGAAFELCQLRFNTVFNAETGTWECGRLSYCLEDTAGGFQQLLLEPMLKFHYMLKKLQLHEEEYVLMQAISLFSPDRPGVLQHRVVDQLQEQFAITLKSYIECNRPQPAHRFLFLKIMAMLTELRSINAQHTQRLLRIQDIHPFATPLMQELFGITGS

zebrafish PXR [10] = molecular target: T5, zebrafish PXR
rabbit PXR [11] = molecular target: T2, rabbit PXR; test: PXR activation luciferase reporter assay, rabbit PXR
human PXR [12] = molecular target: T6, human PXR
chicken PXR [13] = molecular target: T3, chicken PXR; test: cell-based
HepG2 cells [14] = test: Toxicity assays in HepG2 cells (MTT and alamar blue reduction); settings: lowest concentration that produced significant toxicity in the HepG2 cells
[15] = hPXR Activity, -log(EC50), EC50 in molar units, activation of human PXR

Compound	Activation of Ciona VDR/PXR (in words) (Ciona VDR/PXR)	Rat PXR Activity (rat PXR [1])	Rabbit PXR Activity (rabbit PXR [2])	Chicken PXR Activity (chicken PXR [3])	Mouse PXR Activity (mouse PXR [4])	Rat PXR efficacy, ε (rat PXR [1])	EC50 (rat PXR [5]) [µM]	EC50 (mouse PXR [6]) [µM]	Toxicity (HepG2 cells [7])	EC50 (human PXR [9]; [15]) [µM]	Mouse PXR efficacy, ε (mouse PXR [4])	EC50 (chicken PXR [13]) [µM]	further results
6-formylindolo-[3,2-b]carbazole	low micromolar range; also recorded: robustly activated	–	–	–	–	–	–	–	–	–	–	–	–
C[C@H](CCC(=O)O)[C@H]1CC[C@H]2[C@@H]3C[C@@H](O)[C@@H]4C[C@H](O)CC[C@]4(C)[C@H]3CC[C@]12C [BI004, Murideoxycholic acid]	–	4.80	4.52	No effect	5.09	–	–	–	–	–	–	–	–
CC(CCCC(CO)COS(=O)(=O)O)[C@H]1CCC2C3C(C[C@H](O)[C@@]21C)[C@@]1(C)CC[C@@H](O)C[C@@H]1C[C@H]3O (stereo partly drawn) [BI036, 5β-Cholestan-3α,7α,12α,26-tetrol-27-sulfate]	–	–	–	–	–	0.28	31.6	16.6	None	25.7	0.29	30.9	EC50 (zebrafish PXR [8]): 43.7 µM; Activation of zebrafish PXR (in words) (zebrafish PXR [10]; bile salts): activated; zfPXR Efficacy (zebrafish PXR [10]; zebrafish): 0.75; Chicken PXR efficacy, ε (chicken PXR [3]; chicken): 0.61; EC50 (rabbit PXR [11]): 81.3 µM; Rabbit PXR efficacy, ε (rabbit PXR [11]; relative to 50 μM 5α-pregnan-3,20-dione, assigned an efficacy of 1.0): 0.43; Activation of human PXR (in words) (human PXR [12]): activated
CC(CCC[C@@H](C)[C@H]1CC[C@H]2[C@@H]3[C@H](O)C[C@@H]4C[C@H](O)CC[C@]4(C)[C@H]3C[C@H](O)[C@]12C)C(=O)NCCS(=O)(=O)O (stereo partly drawn) [BI038, 3α,7α,12αtTrihydroxy-5β-cholestan-27-oic acid, taurine conjugated]	–	No effect	No effect	No effect	No effect	–	–	–	200 µM	–	–	–	zfPXR Activity (zebrafish PXR [10]; -log(EC50), EC50 in molar units, activation of zebrafish PXR): None; hPXR Activity (human PXR [12]): None
NC(=O)N1c2ccccc2C=Cc2ccccc21 [MI7, Carbamazepine]	micromolar range; also recorded: Weaker activation	–	–	–	–	–	–	–	–	63.1	–	–	Toxicity (HepG2 cells [7]; human, 24 hr): 200 µM; zfPXR Activity (zebrafish PXR [10]): None
Clc1cc2c(cc1Cl)Oc1cc(Cl)c(Cl)cc1O2 [MI34, 2,3,7,8-tetrachlorodibenzo-p-dioxin]	–	–	–	–	–	0.83	0.2	0.1	–	–	1.60	0.0912	EC50 (zebrafish PXR [8]; zfPXR Activity, -log(EC50), EC50 in molar units, activation of zebrafish PXR): 0.479 µM; EC50 (human PXR [9]): 0.0676 µM; hPXR Efficacy (human PXR [9]; relative to 10 μM rifampicin, assigned an efficacy of 1.0): 1.78; zfPXR Efficacy (zebrafish PXR [10]; relative to 20 μM 5α-androstan-3α-ol, assigned an efficacy of 1.0): 6.17; Chicken PXR efficacy, ε (chicken PXR [3]; relative to 20 μM nifedipine, assigned an efficacy of 1.0): 0.06; Activation of rabbit PXR (in words) (rabbit PXR [11]): inactive; Rabbit PXR Activity (rabbit PXR [11]; -log(EC50), EC50 in molar units): No effect; Toxicity (HepG2 cells [14]): 10 µM
